# Source: paper PMC6508677, “Identification of druggable small molecule antagonists of the Plasmodium falciparum hexose transporter PfHT and assessment of ligand access to the glucose permeation pathway via FLAG-mediated protein engineering” (PLoS ONE, 2019)
# Several values for one entry are separate records, joined by “and”; a condition that tells them apart may be missing. Equal values may be shown once. Read-outs that look alike come from different tables or passages of the source.
# Biological target: T1, PfHT (Plasmodium falciparum, UniProt Q7KWJ5)
# T1 sequence (Q7KWJ5 1-504): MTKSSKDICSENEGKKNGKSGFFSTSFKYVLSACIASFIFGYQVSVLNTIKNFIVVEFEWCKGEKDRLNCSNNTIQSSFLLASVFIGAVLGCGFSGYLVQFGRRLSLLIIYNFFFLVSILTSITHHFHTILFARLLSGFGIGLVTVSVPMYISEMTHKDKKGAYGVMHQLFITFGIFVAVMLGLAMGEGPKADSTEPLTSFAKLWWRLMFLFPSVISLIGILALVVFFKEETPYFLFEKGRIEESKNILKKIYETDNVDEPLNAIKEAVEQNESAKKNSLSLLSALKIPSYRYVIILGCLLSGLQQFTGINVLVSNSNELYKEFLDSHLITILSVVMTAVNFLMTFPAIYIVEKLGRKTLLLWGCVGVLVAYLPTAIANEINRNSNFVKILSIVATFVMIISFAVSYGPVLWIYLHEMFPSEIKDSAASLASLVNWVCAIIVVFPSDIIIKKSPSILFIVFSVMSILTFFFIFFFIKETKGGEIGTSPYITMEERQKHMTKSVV
# Assay: 2-DG uptake by HEK293 cells overexpressing PfHT
# Assay type: cell-based
# Design: expressed in transfected cells; host or cells: HEK293 (HEK293-FLIP, native hGLUT1 knocked down by shRNA)
# Settings: for Maximum Inhibition (%): 2-DG uptake, PfHT cell line; for inhibition at 5 µM: read-out: % Inhibition of 2-DG uptake vs vehicle
# Source text: Generation of HEK293 cells overexpressing PfHT and human GLUTs 1–4 were described elsewhere. Briefly, HEK293 cells were transfected with pcDNA3.1 FLII12Pglu-7006 (Addgene), containing the fluorescence resonance energy transfer (FRET) glucose sensor (HEK293-FLIP) and PfHT, human GLUT1 (hGLUT1), hGLUT2, hGLUT3, hGLUT4, hGLUT5 or hGLUT8 using Optifect (Life Technologies) according to manufacturer’s specifications. To increase retention of GLUT8 at the plasma membrane, the dileucine sorting signal E^7E^8XXXLL was modified to R^7R^8XXXLL as described in [17]. Stable transfectants were selected for G418 and hygromycin resistance to select for FRET sensor and hexose transporter, respectively. HEK293-FLIP cells were also used to generate cells stably transfected with FLAG-tagged PfHT (FTPfHT). FLAG tag ([…]) followed by a triple glycine linker and a tobacco etch virus (TEV) protease site (ENLYFQS) followed by a triple glycine linker was added to the N-terminus of PfHT via PCR [18] using Phusion Hot Start II High-Fidelity DNA Polymerase (Fisher Scientific). Single clones were selected by comparing their abilities to transport glucose as assayed via FRET and radiolabeled hexose uptake. In all cell lines, except for HEK293 cells overexpressing hGLUT1 and hGLUT5, native hGLUT1 was knocked down using shRNA as described elsewhere. Transcript levels of the individual GLUTs expressed in each cell line are as described in [13, 15] and in S1 Fig.
# Glucose uptake by P. falciparum was performed essentially as described. P. falciparum strain 3D7 was cultured in 100 mm tissue culture dishes (Techno Plastic Products) in a 2% suspension of human erythrocytes and RPMI 1640 medium until reaching > 7.5% parasitemia. Cells were pelleted via centrifugation and resuspended in RPMI 1640 medium. To determine the uptake of radiolabeled glucose into the parasite, parasites were isolated from infected erythrocytes by permeablization with saponin (0.05 w/v), followed by centrifugation, aspiration of supernatant and washing of the pellet 3X with saline solution (135 mM NaCl, 2 mM KCl, 25 mM HEPES, 0.2 mM glucose and 1 mM MgCl2; pH 7.1) to remove cellular debris. WU-1 or DMSO vehicle were added to 100 μl parasites (resuspended in saline) 5 min prior to the addition of 100 μl [^14C]2-DOG (0.2- μCi/ml final concentration). 2-DG uptake was stopped after 2 min by layering the entire reaction over 300 μl of an oil mixture (5:4 mix of dibutyl phthalate / dinonyl phthalate) in Eppendorf tubes and centrifuged at 15,850 × g for 2 mins. The ratio of the estimated intracellular concentration of radiolabel relative to the extracellular concentration were calculated as described. Uptake of radiolabeled hexose into HEK293 cells was measured in glucose-free HBSS as described previously. Briefly, cells were plated at 400,000 cells/well overnight at 37°C in 24-well plates pre-treated with PEI. After 30-min incubation at 37°C in glucose-free HBSS in the presence of vehicle or increasing concentrations of compound, 2-DG uptake was measured in glucose-free HBSS for 4 min at 37°C. Cultures were washed in ice-cold 1X PBS and lysed in 0.1% Triton X-100 in 1X PBS. Radiolabeled hexose uptake was determined by liquid scintillation counting (Ultima Gold, Thermo Fisher) and normalized to total protein per well. Uptake data are plotted as percent uptake relative to vehicle-treated cells. Kinetic analyses were performed using the indicated concentrations of substrate and WU-1, with quenching of uptake after 1 min incubation. Incubation times had been previously determined as being in the linear range of time-dependent radiolabeled hexose uptake (2 min for 2-DG uptake into freed parasites; 2 and 4 min for D-Frc and 2-DG uptake HEK cell lines, respectively). Data were fit by least squares nonlinear regression analysis using GraphPad Prism 6.0 software.
# [1] = HEK293, 4 min, read-out: 2-DG Uptake AVE, PfHT, concentration 0.001 µM, Expt 1-3
# [2] = IC50 (µM), PfHT, 2-DG Uptake, single experiments Expt 1-3
# [3] = IC50 for inhibition of 2-DG uptake, HEK293 cells overexpressing PfHT, mean/reported value
# [4] = HEK293, 4 min, read-out: 2-DG uptake (percent uptake relative to vehicle), AVE, PfHT, 0.001 µM compound
# [5] = HEK293, 4 min, read-out: 2-DG uptake (percent uptake relative to vehicle), AVE, PfHT, 0.09375 µM compound
# [6] = HEK293, 4 min, read-out: 2-DG uptake (percent uptake relative to vehicle), AVE, PfHT, 0.1875 µM compound
# [7] = HEK293, 4 min, read-out: 2-DG uptake (percent uptake relative to vehicle), AVE, PfHT, 0.3125 µM compound (0.313 in Fig 1 sheet for WU-1)
# [8] = HEK293, 4 min, read-out: 2-DG uptake (percent uptake relative to vehicle), AVE, PfHT, 0.375 µM compound
# [9] = HEK293, 4 min, read-out: 2-DG uptake (percent uptake relative to vehicle), AVE, PfHT, 0.625 µM compound
# [10] = HEK293, 4 min, read-out: 2-DG uptake (percent uptake relative to vehicle), AVE, PfHT, 1.25 µM compound
# [11] = HEK293, 4 min, read-out: 2-DG uptake (percent uptake relative to vehicle), AVE, PfHT, 2.5 µM compound
# [12] = HEK293, 4 min, read-out: 2-DG uptake (percent uptake relative to vehicle), AVE, PfHT, 5 µM compound
# [13] = HEK293, 4 min, read-out: 2-DG uptake (percent uptake relative to vehicle), AVE, PfHT, 10 µM compound
# [14] = HEK293, 4 min, read-out: 2-DG uptake (percent uptake relative to vehicle), AVE, PfHT, 20 µM compound
# [15] = HEK293, 4 min, read-out: 2-DG uptake (percent uptake relative to vehicle), AVE, PfHT, 40 µM compound
# [16] = IC50 for inhibition of 2-DG uptake, individual experiments, HEK293 PfHT, Expt 1-3
smiles,measurement,setting,value
"C=C1[C@@H](C)[C@H]2[C@H](Cc3ccccc3)NC(=O)[C@]23OC(=O)/C=C/[C@H](O)CCC[C@@H](C)C/C=C/[C@H]3[C@@H]1O [CB, cytochalasin B]",IC50,"AVE IC50 (µM), PfHT, 2-DG Uptake, average of Expt 1-3",10.9 µM
same,remaining activity at 0.001 µM,[1],100%
same,remaining activity at 0.3906 µM,"HEK293, 4 min, read-out: 2-DG Uptake AVE, PfHT, concentration 0.3906 µM",95.3%
same,remaining activity at 0.7812 µM,"HEK293, 4 min, read-out: 2-DG Uptake AVE, PfHT, concentration 0.7812 µM",96.2%
same,remaining activity at 1.56 µM,"HEK293, 4 min, read-out: 2-DG Uptake AVE, PfHT, concentration 1.56 µM",90.6%
same,remaining activity at 3.125 µM,"HEK293, 4 min, read-out: 2-DG Uptake AVE, PfHT, concentration 3.125 µM",71%
same,remaining activity at 6.25 µM,"HEK293, 4 min, read-out: 2-DG Uptake AVE, PfHT, concentration 6.25 µM",64.5%
same,remaining activity at 12.5 µM,"HEK293, 4 min, read-out: 2-DG Uptake AVE, PfHT, concentration 12.5 µM",47.3%
same,remaining activity at 25 µM,"HEK293, 4 min, read-out: 2-DG Uptake AVE, PfHT, concentration 25 µM",30.6%
same,remaining activity at 50 µM,"HEK293, 4 min, read-out: 2-DG Uptake AVE, PfHT, concentration 50 µM",22.1%
same,remaining activity at 100 µM,"HEK293, 4 min, read-out: 2-DG Uptake AVE, PfHT, concentration 100 µM",12.7%
same,remaining activity at 200 µM,"HEK293, 4 min, read-out: 2-DG Uptake AVE, PfHT, concentration 200 µM",7.58%
same,remaining activity at 400 µM,"HEK293, 4 min, read-out: 2-DG Uptake AVE, PfHT, concentration 400 µM",4.31%
same,IC50,[2],10.3 µM and 12.6 µM and 9.78 µM
same,IC50,[3],10.9 ± 0.9 µM
"Cc1ccc(S(=O)(=O)CCNC(=O)c2c(-c3c(Cl)cccc3Cl)noc2C)cc1 [WU-1, 3-(2,6-dichlorophenyl)-5-methyl-N-[2-(4-methylbenzenesulfonyl)ethyl]-1,2-oxazole-4-carboxamide]",Maximum Inhibition (%),,93.2%
same,remaining activity at 0.001 µM,[1],100%
same,remaining activity at 0.09375 µM,"HEK293, 4 min, read-out: 2-DG Uptake AVE, PfHT, concentration 0.09375 µM",91.6%
same,remaining activity at 0.1875 µM,"HEK293, 4 min, read-out: 2-DG Uptake AVE, PfHT, concentration 0.1875 µM",88.9%
same,remaining activity at 0.3125 µM,"HEK293, 4 min, read-out: 2-DG Uptake AVE, PfHT, concentration 0.3125 µM",90.1%
same,remaining activity at 0.375 µM,"HEK293, 4 min, read-out: 2-DG Uptake AVE, PfHT, concentration 0.375 µM",85.8%
same,remaining activity at 0.625 µM,"HEK293, 4 min, read-out: 2-DG Uptake AVE, PfHT, concentration 0.625 µM",85.2%
same,remaining activity at 0.75 µM,"HEK293, 4 min, read-out: 2-DG Uptake AVE, PfHT, concentration 0.75 µM",76.1%
same,remaining activity at 1.25 µM,"HEK293, 4 min, read-out: 2-DG Uptake AVE, PfHT, concentration 1.25 µM",64.5%
same,remaining activity at 2.5 µM,"HEK293, 4 min, read-out: 2-DG Uptake AVE, PfHT, concentration 2.5 µM",70.2%
same,remaining activity at 5 µM,"HEK293, 4 min, read-out: 2-DG Uptake AVE, PfHT, concentration 5 µM",49.8%
same,remaining activity at 10 µM,"HEK293, 4 min, read-out: 2-DG Uptake AVE, PfHT, concentration 10 µM",34.7%
same,remaining activity at 20 µM,"HEK293, 4 min, read-out: 2-DG Uptake AVE, PfHT, concentration 20 µM",21.1%
same,remaining activity at 40 µM,"HEK293, 4 min, read-out: 2-DG Uptake AVE, PfHT, concentration 40 µM",20.4%
same,remaining activity at 80 µM,"HEK293, 4 min, read-out: 2-DG Uptake AVE, PfHT, concentration 80 µM",8.82%
same,remaining activity at 160 µM,"HEK293, 4 min, read-out: 2-DG Uptake AVE, PfHT, concentration 160 µM",5.63%
same,remaining activity at 225 µM,"HEK293, 4 min, read-out: 2-DG Uptake AVE, PfHT, concentration 225 µM",5.69%
same,remaining activity at 0.001 µM,[4],100%
same,remaining activity at 0.09375 µM,[5],91.6%
same,remaining activity at 0.1875 µM,[6],88.9%
same,remaining activity at 0.3125 µM,[7],90.2%
same,remaining activity at 0.375 µM,[8],85.8%
same,remaining activity at 0.625 µM,[9],85.3%
same,remaining activity at 0.75 µM,"HEK293, 4 min, read-out: 2-DG uptake (percent uptake relative to vehicle), AVE, PfHT, 0.75 µM compound",76.1%
same,remaining activity at 1.25 µM,[10],80.1%
same,remaining activity at 2.5 µM,[11],68.2%
same,remaining activity at 5 µM,[12],53.2%
same,remaining activity at 10 µM,[13],42.3%
same,remaining activity at 20 µM,[14],30.2%
same,remaining activity at 40 µM,[15],18.7%
same,remaining activity at 80 µM,"HEK293, 4 min, read-out: 2-DG uptake (percent uptake relative to vehicle), AVE, PfHT, 80 µM compound",9.91%
same,remaining activity at 160 µM,"HEK293, 4 min, read-out: 2-DG uptake (percent uptake relative to vehicle), AVE, PfHT, 160 µM compound",5.69%
same,remaining activity at 225 µM,"HEK293, 4 min, read-out: 2-DG uptake (percent uptake relative to vehicle), AVE, PfHT, 225 µM compound",6.88%
same,inhibition at 5 µM,"HEK293, 4 min",50.2%
same,IC50,[2],4.6 µM and 6.6 µM and 6.34 µM
same,IC50,[3],5.8 µM and 5.85 µM
same,IC50,[16],4.6 µM and 6.6 µM and 6.34 µM
same,"2-DG uptake (percent uptake relative to vehicle), AVE","PfHT, 0.001 µM compound",100.00
same,2-DG Uptake AVE,"PfHT, concentration 0.001 µM, Expt 1-3",100.00
same,"Selectivity Index, 2-DG, PfHT line itself",reference value,1.0
"COc1c(Br)cc([N+](=O)[O-])c(OC)c1C(=O)NC(=O)Nc1c(C)cccc1Cl [WU-2, 3-(3-bromo-2,6-dimethoxy-5-nitrobenzoyl)-1-(2-chloro-6-methylphenyl)urea]",Maximum Inhibition (%),,84.4%
same,remaining activity at 0.001 µM,[4],97.7%
same,remaining activity at 0.09375 µM,[5],96%
same,remaining activity at 0.1875 µM,[6],93.9%
same,remaining activity at 0.3125 µM,[7],85%
same,remaining activity at 0.375 µM,[8],79.7%
same,remaining activity at 0.625 µM,[9],75.7%
same,remaining activity at 1.25 µM,[10],68.5%
same,remaining activity at 2.5 µM,[11],62.4%
same,remaining activity at 5 µM,[12],50.6%
same,remaining activity at 10 µM,[13],39.9%
same,remaining activity at 20 µM,[14],26.3%
same,remaining activity at 40 µM,[15],17.3%
same,inhibition at 5 µM,"HEK293, 4 min",47.9%
same,IC50,[3],4.2 µM and 4.15 µM
same,IC50,[16],3.01 µM and 3.83 µM and 5.61 µM
